Measured values published in article PMC11660961, “Leucinostatins target Plasmodium mitochondria to block malaria transmission” (Parasites & Vectors, 2024).
“Also recorded” adds a separate entry of the source. *1 amine or outer side, *2 acyl side, *3 side chain or, on linkers, in order; H or OH if unused. Where a SMILES comes first, the peptide text is derived from it. [ ]: non-standard residue; d: D form. The star is where a group is joined. X3 = C[C@@H](CN(C)C(=O)CCCCCNC(=O)CCCC[C@@H]1SC[C@@H]2NC(=O)N[C@@H]21)N*; X2 = C[C@@H](CN(C)C(=O)CCC[n+]1c2cc(N(C)C)ccc2cc2ccc(N(C)C)cc21)N*; X1 = CCC(=O)C[C@H](O)C[C@@H](C)C[C@H](N[*:1])C(=O)[*:2]; Hexenoyl(2E,4S-Me) = CC[C@H](C)/C=C/C(=O)*; Leu(3R-OH) = CC(C)[C@@H](O)[C@H](N)C(=O)O; NH((S)CH(Me)CH2NMe2) = C[C@@H](CN(C)C)N*; Pro(4S-Me) = C[C@@H]1CN[C@H](C(=O)O)C1; NH((S)CH(CH3)CH2NHMe) = CNC[C@H](C)N*; Aib = CC(C)(N)C(=O)O; βAla = NCCC(=O)O

Columns and labels:
[1] = Reverse-phase C18 HPLC elution time as measure of hydrophobicity; assay type: physicochemical; conditions: chromatographic; semi-prep C18 column (Gemini 5 μm 110A, 250 × 10 mm), gradient 50% methanol to 100% methanol in 50 min, 1 ml per min, A254; approximate time
Protocol: LA and LB were purified from P. lilacum as described. LA/LB mixture (Sigma) was also purchased from Sigma. LB C-terminus were modified by linking biotin and Atto495. Around 0.4 µmol of LB and 8 µmol of amine-reactive EZ-Link™ NHS-LC-Biotin (Invitrogen; molar ratio: 1:20) were mixed in 2 mL of PBS buffer (pH = 7.2) and reacted for continuous stirring 4 h at room temperature. Then, the reaction sample was analyzed and purified by semi-prep high-performance liquid chromatography (HPLC; Shimadzu) C18 column (Gemini 5 μm 110A, 250 × 10 mm) with gradient elution of 50% methanol to 100% methanol in 50 min. The flow rate was 1 ml per min. The LB-biotin conjugate fraction was dried at room temperature with a rotary vacuum evaporator (Heidolph).
The reaction of LB with amine-reactive Atto495 NHS ester (Sigma) was conducted in DMSO. Firstly, Atto495 NHS ester (3 mM), LB (1 mM), and triethylamine (100 mM) were mixed in DMSO in a 0.2 mL reaction volume and reacted at room temperature for 4 h with continuous stirring while protected from light. The reaction solution was applied to semi-prep HPLC to obtain the conjugate of LB-Atto495 as described above, and the LB-Atto495 was dried for use.
The pure LB was reacted with amine-reactive Atto495 NHS ester in DMSO. The reaction solution was applied to semi-prep HPLC. The conjugate of LB-Atto495 was eluded at 29 min (Fig. 2b). […] On the basis of elution times from the HPLC C18 column, the hydrophobicity of four compounds is LB < LA < LB-Atto495 < LB-biotin.

[2] = Cytotoxicity assay, MTT, HEK293; assay type: cell-based, human; conditions: 24 h incubation at 37 °C, three replicates
Protocol: (§1) Two methods and two types of cells were used to analyze the general cytotoxicity of small molecules. First, MTT (3-(4,5-dimethylthiazol-2-yl)-2,5-diphenyl tetrazolium bromide; Thermo-fisher) and human embryonic kidney 293 (HEK293) were used in cytotoxicity assays. About 20,000 HEK293 cells in 200 µl of culture medium [Dulbecco’s modified eagle medium (DMEM) with high glutamine and 10% fetal bovine serum] were seeded per well in 96-well microplates. About 1 µl of the compounds in DMSO at various dilutions was added into each well to obtain final concentrations of 0, 10, 100, and 1000 ng/mL. Three replicates were conducted for each concentration. Following incubation at 37 °C with 5% CO2 for 24 h, 10 µL of MTT (5 mg/mL in PBS) was added to each well and incubated for 4 h at 37 °C with 5% CO2. All but 25 µL of the medium was removed from the wells, and 100 µL of DMSO was added to each well and incubated at 37 °C for 10 min to dissolve formazan crystals for measurement. Optical density was measured at an absorbance wavelength of 540 nm.

[3] = test system: human embryonic kidney 293 (HEK293) cells; assay: Cytotoxicity assay, MTT, HEK293; assay type: cell-based
Protocol: as §1

[4] = test system: K562 cell line (human immortalized myelogenous leukemia cell); assay: Cell proliferation assay, CCK-8 kit, K562; assay type: cell-based
Protocol: Second, the CCK-8 kit (Sigma) and K562 cell line (human immortalized myelogenous leukemia cell) were used to determine the inhibition of a compound against cell proliferation. About 20,000 cells in 200 µl of culture medium (RMPI-1640 with 10% fetal bovine serum) were seeded per well in 96-well microplates, and then a series of dilutions of the compound from 0 to 1000 ng/ml was added to the medium. The cells were maintained at 37 °C and 5% CO2 for 48 h, and then 20 μl of the CCK-8 solution was added to each well of the plate. The plate was incubated for 1 h, and the A450 was measured using a microplate.

O+ human red blood cells = assay: Hemolysis assay; assay type: cell-based; conditions: 100 µM, 10% human RBC suspension in PBS pH 7.4, 3 h at 37 °C, A540, triplicate, p > 0.9
Protocol: About 200 µL of O + human red blood cells were washed three times in PBS (pH 7.4) and then suspended with 1 ml of PBS. Then, 0.3 ml of suspension was diluted with 3 mL of PBS to obtain a 10% suspension. All tested compounds were dissolved in DMSO to prepare a series of dilutions of 1 nM, 10 nM, 100 nM, 1 µM, 10 µM, and 100 µM. The erythrocyte suspension (100 μl per well) was added to a 96-well plate, and the samples were rapidly stirred and incubated at 37 °C with periodic stirring during a 3-h incubation period. The solution was then centrifuged at 2,000 rpm for 5 min. The absorbance of the supernatant was measured at 540 nm using a microplate, and the hemolytic ratio (%) was calculated by comparison with the 100% hemolytic activity caused by distilled water as maximal hemolytic control. The hemolytic % developed by the PBS control was subtracted from all groups. Each experiment was performed in triplicate.

Hela cells = conditions: read-out: IC50 against Hela cells; cited from earlier work
Protocol: Leucinostatins have antimicrobial activity against gram-positive bacteria, including Staphylococcus albus, Bacillus subtilis, Sarcina letter, Streptococcus pyrogens, Streptococcus faecalis, and Mycobacterium species, with IC50 values ranging from 2.5 to 100 μM and against some fungal strains with minimal inhibitory concentrations of 10–25 μM [9–11]. In addition, leucinostatins are known as mycotoxins. The IC50 of leucinostatin Α (LA) to MRC-5 (human fetal lung fibroblast cells) is 2 μΜ [12]. […] The IC50 of LA against H ...

mice = test system: mice; design: method as in 2 sources, ref 9 = [9]; PMID 4783199; doi:10.7164/antibiotics.26.157; 9. Arai T Mikami Y Fukushima K Utsumi T Yazawa K A new antibiotic, leucinostatin, derived from Penicillium lilacinum J Antibiot (Tokyo) 1973 26 157 161 10.7164/antibiotics.26.157 4783199 Arai T, Mikam ||| ref 10 (Mikami et al.); conditions: intraperitoneal injection; cited from earlier work
[5] = test system: P. falciparum transmission to mosquitoes; assay: Standard membrane feeding assay (SMFA), malaria transmission-blocking activity; assay type: in vivo, Plasmodium falciparum (NF54) in Anopheles gambiae (G3); conditions: same set of cultured parasites and mosquitoes, Fig. 3d
Protocol: As we described previously, we maintained An. gambiae (G3 strain) at 27 °C with 80% humidity and a 12 h day/night cycle. Larvae were fed fish food for koi, adult mosquitoes were maintained with 10% sugar in water, and female mosquitoes were fed with purchased human blood to lay eggs. Eggs were collected 48 h after blood-feeding with wet filter papers and hatched in pure water.
P. falciparum (NF54) was cultured in the lab with 4% O + -type red blood cells in a complete Roswell Park Memorial Institute (RPMI) 1640 medium with 10% human AB + serum and 12.5 μg/ml of hypoxanthine in a candle jar at 37 °C. Then, 15-day-old cultured P. falciparum-infected cells were collected through centrifugation (300 g for 3 min), and about 100 μl of pellet were resuspended in 1.5 ml fresh AB + -type serum and mixed with 1.4 ml O + -type red blood cells, containing about 0.2% stage V gametocytes. Each candidate compound was dissolved in dimethylsulfoxide (DMSO) and diluted with DMSO to obtain different concentrations. About 2 μl of candidate solution was mixed with 298 μl of P. falciparum-infected blood prepared above and was used to feed 60–80 3–5-day-old An. gambiae with feeders covered with parafilm at 37 °C for 30 min. […] The midguts were stained with 0.1% mercury dibromofluorescein disodium salt in phosphate-buffered saline (PBS), and the oocysts were counted under a light microscope.

[6] = test system: P. falciparum gametocytes; assay: Distribution of LB-Atto495 in live gametocytes by fluorescence microscopy; assay type: cell-based, Plasmodium falciparum; conditions: LB-Atto495 (1 µl of 1 mM in 100 µl) incubated 6 h at room temperature, fluorescent microscope
Protocol: The 15-day-old cultured P. falciparum was collected from a six-well plate. After centrifugation (300 g for 3 min), the cells were washed with 1 ml of PBS three times at room temperature. About 10 μl of cells was suspended in 100 μl of PBS, and 1 μl of LB-Atto495 (1 mM in DMSO) was added and mixed. The cells were incubated at room temperature in the dark for 6 h. The mixture was centrifuged at 300 g for 3 min to collect cells, which were washed three times with 200 μl of PBS. Finally, the cells were deposited on slides to make a blood smear and fixed with methanol. The vector shield antifade mounting medium for fluorescence (VectorLabs, CA) was dropped on the slides. The slides were covered with coverslips and examined under a fluorescent microscope (Nikon Eclipse Ti-S).

## CCC(=O)C[C@H](O)C[C@@H](C)C[C@H](NC(=O)[C@@H]1C[C@H](C)CN1C(=O)/C=C/[C@@H](C)CC)C(=O)N[C@H](C(=O)NC(C)(C)C(=O)N[C@@H](CC(C)C)C(=O)N[C@@H](CC(C)C)C(=O)NC(C)(C)C(=O)NC(C)(C)C(=O)NCCC(=O)N[C@@H](C)CN(C)C)[C@H](O)C(C)C [LA, leucinostatin A] ({Hexenoyl(2E,4S-Me)}-[Pro(4S-Me)][X1][Leu(3R-OH)][Aib]LL[Aib][Aib][βAla]-{NH((S)CH(Me)CH2NMe2)})
[1]
  HPLC elution time (hydrophobicity): ~28.3 min
[2]
  IC50: 89.6 nM
[3]; 10 ng/mL, p > 0.7
  Density of living cells versus 0 control, HEK293: no significant difference
[3]; 100 nM, 24 h
  Reduction of cell proliferation, HEK293: 38%
[4]; 10 ng/mL, CCK-8, p > 0.6
  Density of living cells versus 0 control, K562: no significant difference
[4]; 100 nM, CCK-8, 48 h
  Reduction of cell proliferation, K562: 43.7%
O+ human red blood cells
  Hemolysis of red blood cells: not significantly different
O+ human red blood cells; listed as leucinostatin A
  Hemolysis of red blood cells: did not lyse erythrocytes
Hela cells
  IC50: ~40 nM
mice
  LD50: 1.6 mg/kg

## CCC(=O)C[C@H](O)C[C@@H](C)C[C@H](NC(=O)[C@@H]1C[C@H](C)CN1C(=O)/C=C/[C@@H](C)CC)C(=O)N[C@H](C(=O)NC(C)(C)C(=O)N[C@@H](CC(C)C)C(=O)N[C@@H](CC(C)C)C(=O)NC(C)(C)C(=O)NC(C)(C)C(=O)NCCC(=O)N[C@@H](C)CNC)[C@H](O)C(C)C [LB, leucinostatin B] ({Hexenoyl(2E,4S-Me)}-[Pro(4S-Me)][X1][Leu(3R-OH)][Aib]LL[Aib][Aib][βAla]-{NH((S)CH(CH3)CH2NHMe)})
[5]
  Blocking of P. falciparum transmission to mosquitoes at 10 nM: completely blocked
[1]
  HPLC elution time (hydrophobicity): ~27.5 min

## CCC(=O)C[C@H](O)C[C@@H](C)C[C@H](NC(=O)[C@@H]1C[C@H](C)CN1C(=O)/C=C/[C@@H](C)CC)C(=O)N[C@H](C(=O)NC(C)(C)C(=O)N[C@@H](CC(C)C)C(=O)N[C@@H](CC(C)C)C(=O)NC(C)(C)C(=O)NC(C)(C)C(=O)NCCC(=O)N[C@@H](C)CN(C)C(=O)CCC[n+]1c2cc(N(C)C)ccc2cc2ccc(N(C)C)cc21)[C@H](O)C(C)C [LB-Atto495] ({Hexenoyl(2E,4S-Me)}-[Pro(4S-Me)][X1][Leu(3R-OH)][Aib]LL[Aib][Aib][βAla]-X2)
[1]
  HPLC elution time (hydrophobicity): 29 min
[6]
  Location in live P. falciparum gametocytes: colocalized with mitochondria; also recorded: binds mitochondria specifically in parasites

## CCC(=O)C[C@H](O)C[C@@H](C)C[C@H](NC(=O)[C@@H]1C[C@H](C)CN1C(=O)/C=C/[C@@H](C)CC)C(=O)N[C@H](C(=O)NC(C)(C)C(=O)N[C@@H](CC(C)C)C(=O)N[C@@H](CC(C)C)C(=O)NC(C)(C)C(=O)NC(C)(C)C(=O)NCCC(=O)N[C@@H](C)CN(C)C(=O)CCCCCNC(=O)CCCC[C@@H]1SC[C@@H]2NC(=O)N[C@@H]21)[C@H](O)C(C)C [LB-biotin] ({Hexenoyl(2E,4S-Me)}-[Pro(4S-Me)][X1][Leu(3R-OH)][Aib]LL[Aib][Aib][βAla]-X3)
[5]
  Blocking of P. falciparum transmission to mosquitoes at 10 nM: did not inhibit
[1]
  HPLC elution time (hydrophobicity): ~31.5 min

## O=C(CCCC[C@@H]1SC[C@@H]2NC(=O)N[C@@H]21)NCCCCCC(=O)ON1C(=O)CC(S(=O)(=O)[O-])C1=O.[Na+] (some centres unmarked) [sulfo-NHS-LC-Biotin]
[1]
  HPLC elution time (hydrophobicity): ~16.5 min
